Measurements from PMC2714694, “Conservation of the glucan phosphatase laforin is linked to rates of molecular evolution and the glucan metabolism of the organism” (BMC Evolutionary Biology, 2009).

Target: T1, Nv-laforin (Nematostella vectensis, UniProt A7SVW9)
T1 construct: gene NEMVEDRAFT_v1g194103; complete open reading frame from Nematostella DNA; GST-Nv-laforin-HIS6 from E. coli BL21 (DE3) CodonPlus RIL; CBM20 plus DSP
T1 sequence (A7SVW9 1-324): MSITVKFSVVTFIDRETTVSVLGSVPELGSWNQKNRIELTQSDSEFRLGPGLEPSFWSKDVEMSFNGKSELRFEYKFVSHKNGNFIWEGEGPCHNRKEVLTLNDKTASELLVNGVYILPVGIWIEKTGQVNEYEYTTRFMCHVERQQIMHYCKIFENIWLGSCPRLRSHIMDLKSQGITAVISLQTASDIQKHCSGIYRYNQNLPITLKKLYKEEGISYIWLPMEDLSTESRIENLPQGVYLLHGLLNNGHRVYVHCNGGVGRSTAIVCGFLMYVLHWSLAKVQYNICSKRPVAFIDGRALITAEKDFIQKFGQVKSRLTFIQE
Assay: p-NPP hydrolysis, absorbance […] nm
Type: biochemical
Settings: 50 mM pNPP, pH 5-8 tested (optimum pH 7.5), 37 °C, 2 mM dithiothreitol, 0.1 M sodium acetate, 0.05 M bis-Tris, 0.05 M Tris-HCl

O=[N+]([O-])c1ccc(OP(=O)(O)O)cc1 [para-nitrophenylphosphate]
p-NPP hydrolysis, absorbance 410 nm: Both Bf- and Nv-laforin also utilized p-NPP as an artificial substrate
